Tests used:
AAK1 (human) = AAK1 (human) (UniProt Q2M2I8)
BMP2K (human) = BMP2K (human) (UniProt Q9NSY1)
BTK (human) = BTK (human) (UniProt Q06187)
CAMK2B (human) = CAMK2B (human) (UniProt Q13554)
CAMK2D (human) = CAMK2D (human) (UniProt Q13557)
CAMK2G (human) = CAMK2G (human) (UniProt Q13555)
CAMKK2 (human) = CAMKK2 (human) (UniProt Q96RR4)
CDK13 (human) = CDK13 (human) (UniProt Q14004)
CDKL2 (human) = CDKL2 (human) (UniProt Q92772)
CSK (human) = CSK (human) (UniProt P41240)
CSNK1A1 (human) = CSNK1A1 (human) (UniProt P48729)
CSNK2A1 (human) = CSNK2A1 (human) (UniProt P68400)
EIF2AK4 KD1 KD2 (human) = EIF2AK4 KD1 KD2 (human) (UniProt Q9P2K8)
FES (human) = FES (human) (UniProt P07332)
GAK (human) = GAK (human) (UniProt O14976)
GAK (human), sequence (O14976 whole entry, looked up): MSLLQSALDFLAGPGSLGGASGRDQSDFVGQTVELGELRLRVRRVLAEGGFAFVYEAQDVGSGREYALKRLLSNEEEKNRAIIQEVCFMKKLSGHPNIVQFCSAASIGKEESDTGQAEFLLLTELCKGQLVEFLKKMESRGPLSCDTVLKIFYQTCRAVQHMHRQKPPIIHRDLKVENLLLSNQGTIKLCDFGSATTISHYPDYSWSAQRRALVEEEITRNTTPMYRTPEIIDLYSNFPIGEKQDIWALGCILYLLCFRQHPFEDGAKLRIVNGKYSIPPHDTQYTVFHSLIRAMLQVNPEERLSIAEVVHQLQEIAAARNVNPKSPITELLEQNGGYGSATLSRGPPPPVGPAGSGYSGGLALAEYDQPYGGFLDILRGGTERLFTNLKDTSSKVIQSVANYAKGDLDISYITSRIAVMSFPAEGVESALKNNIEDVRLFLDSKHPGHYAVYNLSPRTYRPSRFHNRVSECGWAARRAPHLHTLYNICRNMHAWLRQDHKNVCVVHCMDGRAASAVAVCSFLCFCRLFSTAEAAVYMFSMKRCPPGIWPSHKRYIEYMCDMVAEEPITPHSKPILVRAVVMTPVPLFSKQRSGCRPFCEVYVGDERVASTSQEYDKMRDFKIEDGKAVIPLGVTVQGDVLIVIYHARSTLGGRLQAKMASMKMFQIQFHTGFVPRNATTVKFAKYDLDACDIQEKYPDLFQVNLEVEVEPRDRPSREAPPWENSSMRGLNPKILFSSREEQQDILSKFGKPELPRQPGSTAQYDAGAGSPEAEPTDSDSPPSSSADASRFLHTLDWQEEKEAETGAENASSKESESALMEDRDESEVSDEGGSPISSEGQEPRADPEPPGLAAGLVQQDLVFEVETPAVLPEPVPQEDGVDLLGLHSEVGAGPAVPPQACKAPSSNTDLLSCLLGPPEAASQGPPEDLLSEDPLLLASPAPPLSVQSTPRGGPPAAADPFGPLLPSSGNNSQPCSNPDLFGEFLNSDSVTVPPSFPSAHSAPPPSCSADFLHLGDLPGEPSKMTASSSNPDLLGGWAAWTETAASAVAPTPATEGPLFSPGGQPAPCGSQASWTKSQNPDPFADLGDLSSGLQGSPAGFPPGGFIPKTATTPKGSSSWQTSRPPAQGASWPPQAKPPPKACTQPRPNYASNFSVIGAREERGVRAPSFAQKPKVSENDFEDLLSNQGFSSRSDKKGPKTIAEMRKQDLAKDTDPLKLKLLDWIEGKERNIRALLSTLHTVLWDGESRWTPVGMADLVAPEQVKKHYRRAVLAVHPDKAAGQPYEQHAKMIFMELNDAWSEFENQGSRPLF

HCK (human) = HCK (human) (UniProt P08631)
IRAK3 (human) = IRAK3 (human) (UniProt Q9Y616)
JAK1 JH1 JH2 (human) = JAK1 JH1 JH2 (human) (UniProt P23458)
JAK3 JH1 JH2 (human) = JAK3 JH1 JH2 (human) (UniProt P52333)
LIMK1 (human) = LIMK1 (human) (UniProt P53667)
MAP3K11 (human) = MAP3K11 (human) (UniProt Q16584)
MAP3K2 (human) = MAP3K2 (human) (UniProt Q9Y2U5)
MAP3K5 (human) = MAP3K5 (human) (UniProt Q99683)
MAP4K1 (human) = MAP4K1 (human) (UniProt Q92918)
MAP4K2 (human) = MAP4K2 (human) (UniProt Q12851)
MAP4K5 (human) = MAP4K5 (human) (UniProt Q9Y4K4)
MAPK1 (human) = MAPK1 (human) (UniProt P28482)
MAPK9 (human) = MAPK9 (human) (UniProt P45984)
MARK3 (human) = MARK3 (human) (UniProt P27448)
MAST3 (human) = MAST3 (human) (UniProt O60307)
MTOR (human) = MTOR (human) (UniProt P42345)
NEK9 (human) = NEK9 (human) (UniProt Q8TD19)
PDPK1 (human) = PDPK1 (human) (UniProt O15530)
PRKDC (human) = PRKDC (human) (UniProt P78527)
PTK2 (human) = PTK2 (human) (UniProt Q05397)
RPS6KA4 KD1 KD2 (human) = RPS6KA4 KD1 KD2 (human) (UniProt O75676)
SRC (human) = SRC (human) (UniProt P12931)
STK16 (human) = STK16 (human) (UniProt O75716)
STK16 (human), sequence (O75716 whole entry, looked up): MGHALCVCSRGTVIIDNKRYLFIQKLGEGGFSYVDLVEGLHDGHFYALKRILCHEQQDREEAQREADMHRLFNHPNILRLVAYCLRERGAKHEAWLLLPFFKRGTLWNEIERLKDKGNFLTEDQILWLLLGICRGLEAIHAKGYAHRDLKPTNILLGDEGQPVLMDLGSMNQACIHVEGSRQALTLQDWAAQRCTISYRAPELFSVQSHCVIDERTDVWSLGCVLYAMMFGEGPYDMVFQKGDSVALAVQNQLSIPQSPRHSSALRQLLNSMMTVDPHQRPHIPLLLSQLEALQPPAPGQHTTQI

SYK (human) = SYK (human) (UniProt P43405)
TAOK2 (human) = TAOK2 (human) (UniProt Q9UL54)
TAOK2 (human), sequence (Q9UL54 whole entry, looked up): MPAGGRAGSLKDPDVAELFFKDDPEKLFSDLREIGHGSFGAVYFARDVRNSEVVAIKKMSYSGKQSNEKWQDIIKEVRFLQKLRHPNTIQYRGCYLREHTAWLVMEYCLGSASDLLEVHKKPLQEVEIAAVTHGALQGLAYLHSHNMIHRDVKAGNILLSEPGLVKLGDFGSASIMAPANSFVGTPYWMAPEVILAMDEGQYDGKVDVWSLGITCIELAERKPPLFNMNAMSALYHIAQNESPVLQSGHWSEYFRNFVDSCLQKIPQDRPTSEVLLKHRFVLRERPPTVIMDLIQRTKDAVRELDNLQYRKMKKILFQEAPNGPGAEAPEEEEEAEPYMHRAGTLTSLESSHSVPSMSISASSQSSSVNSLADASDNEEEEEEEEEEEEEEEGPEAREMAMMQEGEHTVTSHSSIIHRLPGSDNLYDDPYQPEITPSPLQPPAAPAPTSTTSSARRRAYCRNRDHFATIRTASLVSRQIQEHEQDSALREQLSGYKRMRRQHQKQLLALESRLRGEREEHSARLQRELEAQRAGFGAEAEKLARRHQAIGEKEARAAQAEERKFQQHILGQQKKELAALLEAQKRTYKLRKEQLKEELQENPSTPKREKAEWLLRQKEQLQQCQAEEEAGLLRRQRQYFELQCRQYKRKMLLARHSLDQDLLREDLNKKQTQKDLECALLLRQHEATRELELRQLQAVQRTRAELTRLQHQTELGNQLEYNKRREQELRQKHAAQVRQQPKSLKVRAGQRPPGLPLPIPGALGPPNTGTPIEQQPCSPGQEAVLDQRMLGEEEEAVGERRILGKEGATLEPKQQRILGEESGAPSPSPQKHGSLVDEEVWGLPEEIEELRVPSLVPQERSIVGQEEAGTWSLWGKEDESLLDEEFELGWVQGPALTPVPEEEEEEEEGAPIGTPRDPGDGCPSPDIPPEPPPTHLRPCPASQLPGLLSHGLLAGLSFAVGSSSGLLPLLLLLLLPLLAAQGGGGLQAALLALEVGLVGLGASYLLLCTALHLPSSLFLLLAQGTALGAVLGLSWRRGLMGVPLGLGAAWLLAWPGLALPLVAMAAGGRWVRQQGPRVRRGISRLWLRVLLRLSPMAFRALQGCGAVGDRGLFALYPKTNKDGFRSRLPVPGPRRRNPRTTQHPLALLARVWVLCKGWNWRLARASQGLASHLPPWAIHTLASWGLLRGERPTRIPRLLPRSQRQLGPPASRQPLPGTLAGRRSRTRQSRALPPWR

TESK1 (human) = TESK1 (human) (UniProt Q15569)
TNK2 (human) = TNK2 (human) (UniProt Q07912)
ULK3 (human) = ULK3 (human) (UniProt Q6PHR2)
WEE1 (human) = WEE1 (human) (UniProt P30291)

CSK (human), sequence (P41240 whole entry, looked up): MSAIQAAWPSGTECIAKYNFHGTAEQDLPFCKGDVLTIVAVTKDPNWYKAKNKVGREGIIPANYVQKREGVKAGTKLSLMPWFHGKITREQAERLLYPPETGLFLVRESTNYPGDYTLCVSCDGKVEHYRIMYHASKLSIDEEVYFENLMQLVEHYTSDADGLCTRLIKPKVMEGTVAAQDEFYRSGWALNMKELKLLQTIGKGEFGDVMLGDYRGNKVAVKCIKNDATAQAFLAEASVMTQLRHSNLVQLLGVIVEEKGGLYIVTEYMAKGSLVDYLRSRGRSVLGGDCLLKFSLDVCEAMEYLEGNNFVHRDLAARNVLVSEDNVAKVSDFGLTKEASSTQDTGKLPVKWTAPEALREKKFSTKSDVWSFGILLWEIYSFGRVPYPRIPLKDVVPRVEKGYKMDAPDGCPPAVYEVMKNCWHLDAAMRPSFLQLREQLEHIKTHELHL
BMP2K (human), sequence (Q9NSY1 whole entry, looked up): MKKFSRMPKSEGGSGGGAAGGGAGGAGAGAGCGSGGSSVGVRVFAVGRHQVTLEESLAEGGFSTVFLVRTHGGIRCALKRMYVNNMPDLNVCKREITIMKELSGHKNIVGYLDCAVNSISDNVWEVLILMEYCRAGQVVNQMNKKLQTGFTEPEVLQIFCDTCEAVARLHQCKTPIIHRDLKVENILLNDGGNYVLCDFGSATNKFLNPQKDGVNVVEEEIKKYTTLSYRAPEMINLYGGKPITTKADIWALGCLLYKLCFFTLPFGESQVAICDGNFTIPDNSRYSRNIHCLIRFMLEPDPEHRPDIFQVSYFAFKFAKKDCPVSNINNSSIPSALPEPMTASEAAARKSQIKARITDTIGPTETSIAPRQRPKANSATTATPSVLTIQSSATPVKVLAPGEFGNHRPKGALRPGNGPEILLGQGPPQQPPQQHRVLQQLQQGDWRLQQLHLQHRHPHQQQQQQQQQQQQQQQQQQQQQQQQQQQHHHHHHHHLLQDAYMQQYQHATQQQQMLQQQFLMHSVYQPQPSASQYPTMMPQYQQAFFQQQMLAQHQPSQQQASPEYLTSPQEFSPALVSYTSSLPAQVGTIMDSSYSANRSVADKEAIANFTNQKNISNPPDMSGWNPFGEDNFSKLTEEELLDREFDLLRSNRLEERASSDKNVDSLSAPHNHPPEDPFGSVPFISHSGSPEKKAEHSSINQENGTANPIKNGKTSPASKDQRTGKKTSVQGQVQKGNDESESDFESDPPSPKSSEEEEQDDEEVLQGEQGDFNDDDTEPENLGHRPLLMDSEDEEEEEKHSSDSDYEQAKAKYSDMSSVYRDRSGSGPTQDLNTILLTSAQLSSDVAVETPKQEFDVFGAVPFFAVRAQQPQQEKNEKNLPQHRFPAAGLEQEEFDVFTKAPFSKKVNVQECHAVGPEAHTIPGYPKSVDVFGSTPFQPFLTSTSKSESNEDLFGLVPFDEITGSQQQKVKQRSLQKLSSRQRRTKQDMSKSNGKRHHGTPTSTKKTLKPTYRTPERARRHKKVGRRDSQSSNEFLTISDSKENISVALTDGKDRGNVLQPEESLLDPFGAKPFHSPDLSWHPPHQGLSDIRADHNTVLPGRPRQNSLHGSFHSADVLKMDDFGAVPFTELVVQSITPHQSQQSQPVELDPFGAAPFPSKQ
CAMK2G (human), sequence (Q13555 whole entry, looked up): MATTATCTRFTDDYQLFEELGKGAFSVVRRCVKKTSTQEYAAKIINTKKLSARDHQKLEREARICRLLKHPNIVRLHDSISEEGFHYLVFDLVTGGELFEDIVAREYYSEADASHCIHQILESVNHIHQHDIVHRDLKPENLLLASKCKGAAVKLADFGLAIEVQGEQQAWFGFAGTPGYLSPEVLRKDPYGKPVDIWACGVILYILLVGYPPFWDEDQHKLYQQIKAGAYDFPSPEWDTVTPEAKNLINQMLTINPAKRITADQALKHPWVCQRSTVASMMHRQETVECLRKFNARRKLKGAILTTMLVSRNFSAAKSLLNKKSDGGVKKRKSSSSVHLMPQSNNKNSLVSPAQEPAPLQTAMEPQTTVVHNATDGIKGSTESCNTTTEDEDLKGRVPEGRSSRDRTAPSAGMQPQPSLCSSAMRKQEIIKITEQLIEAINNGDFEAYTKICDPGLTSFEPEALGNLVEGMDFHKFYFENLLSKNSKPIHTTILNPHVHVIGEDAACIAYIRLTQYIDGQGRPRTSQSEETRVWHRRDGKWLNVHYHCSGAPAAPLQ

CN1CC[C@H](c2c(O)cc(O)c3c(=O)cc(-c4ccccc4Cl)oc23)[C@H](O)C1
IC50 (AAK1 (human)): > 10 µM | IC50 (BMP2K (human)): > 10 µM | IC50 (BTK (human)): > 10 µM | IC50 (CAMK2B (human)): 7.68 µM | IC50 (CAMK2D (human)): 7.67 µM | IC50 (CAMK2G (human)): 8.42 µM | IC50 (CAMKK2 (human)): 0.925 µM | IC50 (CDK13 (human)): 4.4 µM | IC50 (CDKL2 (human)): > 10 µM | IC50 (CSK (human)): > 10 µM | IC50 (CSNK1A1 (human)): 8.41 µM | IC50 (CSNK2A1 (human)): 9.42 µM | IC50 (EIF2AK4 KD1 KD2 (human)): > 10 µM | IC50 (FES (human)): > 10 µM | IC50 (GAK (human)): > 10 µM | IC50 (HCK (human)): > 10 µM | IC50 (IRAK3 (human)): > 10 µM | IC50 (JAK1 JH1 JH2 (human)): > 10 µM | IC50 (JAK3 JH1 JH2 (human)): > 10 µM | IC50 (LIMK1 (human)): > 10 µM | IC50 (MAP3K11 (human)): > 10 µM | IC50 (MAP3K2 (human)): > 10 µM | IC50 (MAP3K5 (human)): > 10 µM | IC50 (MAP4K1 (human)): > 10 µM | IC50 (MAP4K2 (human)): > 10 µM | IC50 (MAP4K5 (human)): > 10 µM | IC50 (MAPK1 (human)): > 10 µM | IC50 (MAPK9 (human)): > 10 µM | IC50 (MARK3 (human)): 3 µM | IC50 (MAST3 (human)): > 10 µM | IC50 (MTOR (human)): > 10 µM | IC50 (NEK9 (human)): > 10 µM | IC50 (PDPK1 (human)): > 10 µM | IC50 (PRKDC (human)): > 10 µM | IC50 (PTK2 (human)): > 10 µM | IC50 (RPS6KA4 KD1 KD2 (human)): 6.42 µM | IC50 (SRC (human)): > 10 µM | IC50 (STK16 (human)): > 10 µM | IC50 (SYK (human)): > 10 µM | IC50 (TAOK2 (human)): 8.47 µM | IC50 (TESK1 (human)): > 10 µM | IC50 (TNK2 (human)): > 10 µM | IC50 (ULK3 (human)): > 10 µM | IC50 (WEE1 (human)): > 10 µM

— the kinase profiling compilation of Christmann-Franck et al. (2016)
